Positions count from the first letter of the chain named.
Legend:
Test in all cases: isothermal titration calorimetry
Type in all cases: binding
[1] = target: T1, AaLpxC (Aquifex aeolicus, UniProt O67648, I186A)
T1 construct: gene lpxC; codon-optimised gene in pET-21a (NdeI/XhoI), E. coli BL21(DE3); approx. 32 kDa; Zn2+ enzyme; last five residues LTRLE disordered in crystal
T1 sequence (O67648 1-271 I186A): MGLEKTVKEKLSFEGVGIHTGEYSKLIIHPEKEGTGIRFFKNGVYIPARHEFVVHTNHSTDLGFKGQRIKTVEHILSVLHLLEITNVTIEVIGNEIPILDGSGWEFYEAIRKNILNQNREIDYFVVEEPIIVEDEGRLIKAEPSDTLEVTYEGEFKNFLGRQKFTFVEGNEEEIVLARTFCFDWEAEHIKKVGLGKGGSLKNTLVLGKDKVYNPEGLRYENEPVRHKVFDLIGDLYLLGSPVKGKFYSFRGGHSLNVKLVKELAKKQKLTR
Text: (§1) isothermal titration calorimetry on AaLpxC

[2] = target: T2, AaLpxC (Aquifex aeolicus, UniProt O67648, K227A)
T2 construct: gene lpxC; codon-optimised gene in pET-21a (NdeI/XhoI), E. coli BL21(DE3); approx. 32 kDa; Zn2+ enzyme; last five residues LTRLE disordered in crystal
T2 sequence (O67648 1-271 K227A): T1 sequence (O67648 1-271 I186A) with A186I, K227A
Text: as §1

[3] = target: T3, AaLpxC (Aquifex aeolicus, UniProt O67648, I189A)
T3 construct: gene lpxC; codon-optimised gene in pET-21a (NdeI/XhoI), E. coli BL21(DE3); approx. 32 kDa; Zn2+ enzyme; last five residues LTRLE disordered in crystal
T3 sequence (O67648 1-271 I189A): T1 sequence (O67648 1-271 I186A) with A186I, I189A
Text: as §1

[4] = target: T4, AaLpxC (Aquifex aeolicus, UniProt O67648, I18A)
T4 construct: gene lpxC; codon-optimised gene in pET-21a (NdeI/XhoI), E. coli BL21(DE3); approx. 32 kDa; Zn2+ enzyme; last five residues LTRLE disordered in crystal
T4 sequence (O67648 1-271 I18A): T1 sequence (O67648 1-271 I186A) with I18A, A186I
Text: as §1

[5] = target: T5, AaLpxC (Aquifex aeolicus, UniProt O67648, E185A)
T5 construct: gene lpxC; codon-optimised gene in pET-21a (NdeI/XhoI), E. coli BL21(DE3); approx. 32 kDa; Zn2+ enzyme; last five residues LTRLE disordered in crystal
T5 sequence (O67648 1-271 E185A): T1 sequence (O67648 1-271 I186A) with E185A, A186I
Text: as §1

[6] = target: T6, AaLpxC (Aquifex aeolicus, UniProt O67648, F180A)
T6 construct: gene lpxC; codon-optimised gene in pET-21a (NdeI/XhoI), E. coli BL21(DE3); approx. 32 kDa; Zn2+ enzyme; last five residues LTRLE disordered in crystal
T6 sequence (O67648 1-271 F180A): T1 sequence (O67648 1-271 I186A) with F180A, A186I
Text: as §1

[7] = target: T7, AaLpxC (Aquifex aeolicus, UniProt O67648, E73A)
T7 construct: gene lpxC; codon-optimised gene in pET-21a (NdeI/XhoI), E. coli BL21(DE3); approx. 32 kDa; Zn2+ enzyme; last five residues LTRLE disordered in crystal
T7 sequence (O67648 1-271 E73A): T1 sequence (O67648 1-271 I186A) with E73A, A186I
Text: as §1

[8] = target: T8, AaLpxC (Aquifex aeolicus, UniProt O67648)
T8 construct: gene lpxC; codon-optimised gene in pET-21a (NdeI/XhoI), E. coli BL21(DE3); approx. 32 kDa; Zn2+ enzyme; last five residues LTRLE disordered in crystal
T8 sequence (O67648 1-271): T1 sequence (O67648 1-271 I186A) with A186I
Text: as §1

[9] = target: T9, AaLpxC (Aquifex aeolicus, UniProt O67648, T203A)
T9 construct: gene lpxC; codon-optimised gene in pET-21a (NdeI/XhoI), E. coli BL21(DE3); approx. 32 kDa; Zn2+ enzyme; last five residues LTRLE disordered in crystal
T9 sequence (O67648 1-271 T203A): T1 sequence (O67648 1-271 I186A) with A186I, T203A
Text: as §1

[10] = target: T10, AaLpxC (Aquifex aeolicus, UniProt O67648, H19A)
T10 construct: gene lpxC; codon-optimised gene in pET-21a (NdeI/XhoI), E. coli BL21(DE3); approx. 32 kDa; Zn2+ enzyme; last five residues LTRLE disordered in crystal
T10 sequence (O67648 1-271 H19A): T1 sequence (O67648 1-271 I186A) with H19A, A186I
Text: as §1

[11] = target: T11, AaLpxC (Aquifex aeolicus, UniProt O67648, S59A)
T11 construct: gene lpxC; codon-optimised gene in pET-21a (NdeI/XhoI), E. coli BL21(DE3); approx. 32 kDa; Zn2+ enzyme; last five residues LTRLE disordered in crystal
T11 sequence (O67648 1-271 S59A): T1 sequence (O67648 1-271 I186A) with S59A, A186I
Text: as §1

Compound: CC(C)(N)[C@H](NC(=O)c1ccc(C#CC#C[C@@H]2C[C@H]2CO)cc1)C(=O)NO [ACHN-975]
- Kd [1]: 200 ± 90 nM
- Kd [2]: 100 ± 80 nM
- Kd [3]: 100 ± 90 nM
- Kd [4]: 400 ± 300 nM
- Kd [5]: 60 ± 30 nM
- Kd [6]: 90 ± 70 nM
- Kd [7]: 70 ± 50 nM
- Kd [8]: 400 ± 100 nM
- Kd [9]: 2000 ± 1400 nM
- Kd [10]: 400 ± 200 nM
- Kd [11]: 400 ± 100 nM
